Assay results published in patent EP0445735A1, “Melanogenesis-inhibiting endermic preparation” (Sansho Seiyaku Co., Ltd., priority 1990, dated 1991).

Test system: B16 cells
Assay: Test of whitening B16 cells (whiteness of cell pellets observed with the naked eye)
Format: cell-based
Settings: for EC (whiteness 3+): Mus musculus, whiteness of cells 3 + (gray), read-out: Concentration of the test compound to give whiteness of cells of being 3 + (gray); for Whiteness of Cells: cell pellets after five days
Protocol: PMC was added to Eagle's MEM medium, to which a fetal calf serum had been added, in a concentration of 100, 50, 20 or 10 µM. 1 × 10⁵ B16 cells were inoculated into the medium. Three days after the inoculation, the medium was exchanged for a fresh one.
Standards of evaluation of whiteness of cells are as follows: 5 + : White 4 + : White to Gray 3 + : Gray 2 + : Gray to Black 1 + : Black (but somewhat paler than control) - : Black

For `COC1(C)CCc2c(C)c(O)c(C)c(C)c2O1` (stereo not drawn) [(3), 2,5,7,8-Tetramethyl-2-methoxzy-6-hydroxychroman], which EC (whiteness 3+) is on record?
The EC (whiteness 3+) was 50 µM.

With `Cc1c2c(c(C(C)C)c(O)c1C(C)C)CCC(C)(C)O2` [(4), 2,2,8-Trimethyl-5,7-diisopropyl-6-hydroxychroman] as the compound, how does the EC (whiteness 3+) read?
Its EC (whiteness 3+) is 20 µM.

Which EC (whiteness 3+) does the source give for `Cc1c(C)c2c(c(C)c1O)CCC(C)(CO)O2` (stereo not drawn) [(5), 2,5,7,8-Tetramethyl-6-hydroxy-2-hydroxymethylchroman] here?
The EC (whiteness 3+) was 40 µM.

For `CCOC(=O)CC1(C)CCc2c(C)c(O)c(C)c(C)c2O1` (stereo not drawn) [(6), Ethyl 2,5,7,8-tetramethyl-6-hydroxychroman-2-acetate], which EC (whiteness 3+) is on record?
Its EC (whiteness 3+) is 30 µM.

Which results are given for `Cc1c(C)c2c(c(C)c1O)CCC(C)(C)O2` [PMC, 2,2,5,7,8-Pentamethyl-6-hydroxychroman]?
Whiteness of Cells (Concentration 10 µM): 1 +; Whiteness of Cells (Concentration 20 µM): 2 +; Whiteness of Cells (Concentration 50 µM): 3 +; Whiteness of Cells (Concentration 100 µM): 4 +; EC (whiteness 3+): 50 µM
